Active and inactive are the calls of the source. No cut-off for these calls is given here.
How the values were obtained:
[1] = target: Metallo-beta-lactamase type 2 (Serratia marcescens, UniProt P52699); assay: Inhibition of Serratia marcescens IMP-1 expressed in Escherichia coli BL21 (DE3) using cephalothin as substrate preincubated for 5 mins followed by substrate addition relative to citrate
[2] = target: Metallo-beta-lactamase type 2 (Serratia marcescens) (UniProt P52699); assay: Inhibition of Serratia marcescens IMP-1 expressed in Escherichia coli BL21 (DE3) at 5 mM using cephalothin as substrate preincubated for 5 mins followed by substrate addition relative to control
Sequence of Metallo-beta-lactamase type 2 (Serratia marcescens) (P52699 19-246 limits assumed): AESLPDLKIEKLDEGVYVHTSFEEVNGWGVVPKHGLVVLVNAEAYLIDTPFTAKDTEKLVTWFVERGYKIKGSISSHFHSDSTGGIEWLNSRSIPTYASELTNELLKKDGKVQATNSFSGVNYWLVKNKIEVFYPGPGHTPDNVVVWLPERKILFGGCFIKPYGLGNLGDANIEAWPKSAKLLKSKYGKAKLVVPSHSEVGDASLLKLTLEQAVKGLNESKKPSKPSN

[3] = target: Metallo-beta-lactamase type 2 (Serratia marcescens) (UniProt P52699); assay: Inhibition of Serratia marcescens IMP-1 expressed in Escherichia coli BL21 (DE3) at 5 mM using cephalothin as substrate preincubated for 5 mins followed by substrate addition

Sequence of Metallo-beta-lactamase type 2 (P52699 whole entry): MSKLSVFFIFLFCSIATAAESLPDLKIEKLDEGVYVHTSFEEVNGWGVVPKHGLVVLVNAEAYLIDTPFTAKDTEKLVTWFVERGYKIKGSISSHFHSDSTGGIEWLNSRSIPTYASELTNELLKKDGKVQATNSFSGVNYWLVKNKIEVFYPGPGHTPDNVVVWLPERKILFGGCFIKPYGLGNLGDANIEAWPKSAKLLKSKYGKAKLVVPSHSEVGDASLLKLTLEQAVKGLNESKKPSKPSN

**Q.** How did the IC50 [1] turn out when O=C(O)CC(O)(CC(=O)OCc1ccccc1)C(=O)O (stereo not drawn) was run?
**A.** The IC50 was greater than 5 mM.

**Q.** What about the inhibition [2] of the same molecule?
**A.** The inhibition was 30%.

**Q.** Which inhibition [3] does the source give for O=C(O)CC(O)(CC(=O)O)C(=O)O here?
**A.** Its inhibition is “inactive”.
